Our source for the viability values is ChEMBL document CHEMBL5608113, “Targeting of CAF-induced therapy resistance in CRC organoid-stroma co-cultures” (2024).

Holding throughout (assay type): functional, Homo sapiens
Holding throughout (conditions): Homo sapiens, Concentration 10 uM; read-out: Cell Viability

For test [1], the system named is Colon cancer organoid. The test can be described thus: Targeting of F14 CAF-induced therapy resistance in O23 CRC organoid-stroma co-culture. Cell viability is reported with Gefitinib.
Test [2] deals with Colon cancer organoid. The test can be described thus: Targeting of F14 CAF-induced therapy resistance in O14 CRC organoid-stroma co-culture. Cell viability is reported without Gefitinib.
Test [3] has as its system Colon cancer organoid. The test can be described thus: Targeting of F14 CAF-induced therapy resistance in O23 CRC organoid-stroma co-culture. Cell viability is reported with SN-38.
For test [4], the system named is Colon cancer organoid. The test can be described thus: Targeting of F14 CAF-induced therapy resistance in O14 CRC organoid-stroma co-culture. Cell viability is reported with Gefitinib.
For test [5], the system named is Colon cancer organoid. Description: Targeting of F14 CAF-induced therapy resistance in O23 CRC organoid-stroma co-culture. Cell viability is reported without Gefitinib.

SMILES strings stand for the structures. Square brackets hold non-standard residues; d marks the D form. Peptide text beside a SMILES is read from it. Arg(Me) = CNC(=N)NCCC[C@H](N)C(=O)O; d3Pal = N[C@H](Cc1cccnc1)C(=O)O; d4Pal = N[C@H](Cc1ccncc1)C(=O)O; azaGly = NNC(=O)O

A word on the viability: it is a read-out of living cells in per cent, often relative to untreated cells.

As for `CN([C@@H]1CCc2c(CC(=O)O)c3cc(S(C)(=O)=O)ccc3n2C1)S(=O)(=O)c1ccc(F)cc1` [CRTH2-negative-control], the viability at 10 µM in the test on Colon cancer organoid [1] turned out to be 24.9%; in the test with Colon cancer organoid [2], 98.2%; with Colon cancer organoid [3], 54.8%; with Colon cancer organoid [4], 37%; in the test with Colon cancer organoid [5], 76.2%.

Turning to `CNC(=O)c1ccc(Nc2ncc(C(F)(F)F)c(NCc3nccnc3N(C)S(C)(=O)=O)n2)cc1` [DEFACTINIB], the viability at 10 µM with Colon cancer organoid [1] was 40.5%; in the test on Colon cancer organoid [2] it was 76.8%; with Colon cancer organoid [3], 39.9%; in the test on Colon cancer organoid [4] it was 17.9%; in the test with Colon cancer organoid [5], 78.6%.

On to `CCN(CCO)CCCOc1ccc2c(Nc3cc(CC(=O)Nc4cccc(F)c4)[nH]n3)ncnc2c1` [DEFOSBARASERTIB], for which the viability at 10 µM in the test on Colon cancer organoid [1] is 19.2%; in the test with Colon cancer organoid [2] it was 9.69%; in the test with Colon cancer organoid [3] it was 28.3%; in the test on Colon cancer organoid [4], 3.88%; with Colon cancer organoid [5], 62.1%.

On to `Cn1c(C2(NC(=O)c3ccc4c(C5CCCC5)c(-c5ncc(Br)cn5)n(C)c4c3)CCC2)nc2ccc(/C=C/C(=O)O)cc21` [DELEOBUVIR], for which the viability at 10 µM in the test with Colon cancer organoid [1] came out at 94.6%; with Colon cancer organoid [2], 126%; in the test on Colon cancer organoid [3] it was 60.4%; with Colon cancer organoid [4] it was 50.5%; in the test on Colon cancer organoid [5], 112%.

Regarding `C[C@H](NC(=O)Nc1cc2[nH]ncc2c(CO)n1)c1ccccn1` [ERKi-NC], the viability at 10 µM worked out at 40.9% in the test on Colon cancer organoid [1]; 71.3% with Colon cancer organoid [2]; 62.2% with Colon cancer organoid [3]; 21.8% in the test with Colon cancer organoid [4]; 94.9% in the test on Colon cancer organoid [5].

For the compound `C[C@@H](NC(=O)Nc1cc2[nH]ncc2c(CO)n1)c1ccccc1` [ERKi], the viability at 10 µM in the test on Colon cancer organoid [1] worked out at 4.5%; in the test on Colon cancer organoid [2] it was 49.2%; with Colon cancer organoid [3] it was 14.3%; in the test on Colon cancer organoid [4], 10.3%; with Colon cancer organoid [5], 14.3%.

Turning to `CN(C(=O)c1ccccc1)c1cc(N(C)c2ccc3c(c2)CCc2ccc(C(=O)NCCN4CCOCC4)cc2C3=O)ccc1F` [FM-743], the viability at 10 µM in the test with Colon cancer organoid [1] stood at 83.7%; in the test with Colon cancer organoid [2] it was 142%; in the test with Colon cancer organoid [3], 59.3%; with Colon cancer organoid [4], 36.5%; in the test with Colon cancer organoid [5], 141%.

With `O=C(NCCN1CCOCC1)c1ccc2c(c1)C(=O)c1ccc(Nc3ccc(F)c(NC(=O)c4ccccc4)c3)cc1CC2` [FS-694], the viability at 10 µM in the test on Colon cancer organoid [1] was 40%; in the test with Colon cancer organoid [2], 156%; in the test on Colon cancer organoid [3], 54%; in the test on Colon cancer organoid [4], 28.9%; in the test with Colon cancer organoid [5], 108%.

Turning to `CC(C)(C)OC(=O)N1CCCC1CNC1CCC(c2cc(F)ccc2F)(S(=O)(=O)c2ccc(Cl)cc2)CC1` (stereo not given) [GSI-NC], the viability at 10 µM with Colon cancer organoid [1] amounted to 42.1%; with Colon cancer organoid [2], 74.5%; in the test with Colon cancer organoid [3], 78.6%; with Colon cancer organoid [4], 52.1%; in the test on Colon cancer organoid [5], 109%.

Take `CC(=O)Nc1c(F)cc(C(=O)N[C@H]2CC[C@H](O)CC2)cc1O[C@@H](C)c1ccccc1` [GSK046]: the viability at 10 µM came to 55.8% in the test with Colon cancer organoid [1]; 121% in the test on Colon cancer organoid [2]; 48.8% with Colon cancer organoid [3]; 25.9% with Colon cancer organoid [4]; 100% with Colon cancer organoid [5].

As for `CNC(=O)c1cc(C(=O)NC2CC2)cn(Cc2ccccc2)c1=O` [GSK620], the viability at 10 µM with Colon cancer organoid [1] was determined as 60.9%; with Colon cancer organoid [2], 116%; with Colon cancer organoid [3], 66.8%; in the test on Colon cancer organoid [4] it was 24.6%; with Colon cancer organoid [5] it was 111%.

In the case of `COCc1nc2cnc3cc(-c4c(C)noc4C)c(OC[C@H]4CCNC4)cc3c2n1[C@H](C)c1ccccc1` [GSK778], the viability at 10 µM with Colon cancer organoid [1] is 47.2%; in the test on Colon cancer organoid [2] it was 40%; in the test on Colon cancer organoid [3] it was 48.8%; with Colon cancer organoid [4], 8.04%; in the test with Colon cancer organoid [5] it was 95.6%.

With `Cc1cc2c(-c3ccco3)cnc(N[C@@H]3CCN(C)C[C@H]3C(=O)NC3CCCCC3)c2[nH]c1=O` [GSK789], the viability at 10 µM in the test on Colon cancer organoid [1] came out at 29.8%; with Colon cancer organoid [2] it was 84.8%; in the test on Colon cancer organoid [3], 38.8%; with Colon cancer organoid [4], 26.6%; in the test with Colon cancer organoid [5], 72.5%.

`Cc1cc2c(-c3ccco3)cnc(N[C@H]3CCN(C)C[C@@H]3C(=O)NC3CCCCC3)c2[nH]c1=O` [GSK791]: the viability at 10 µM in the test on Colon cancer organoid [1] was 50%; in the test with Colon cancer organoid [2], 111%; with Colon cancer organoid [3], 81.3%; in the test on Colon cancer organoid [4], 26.2%; with Colon cancer organoid [5], 76%.

With `CNC(=O)c1cc(C(=O)N[C@H]2[C@@H]3COC[C@@H]32)cc2c1O[C@@H](CF)[C@@H]2c1ccccc1` [GSK943], the viability at 10 µM with Colon cancer organoid [1] was determined as 76.1%; in the test with Colon cancer organoid [2] it was 75.9%; with Colon cancer organoid [3] it was 64.3%; in the test on Colon cancer organoid [4], 30.9%; in the test on Colon cancer organoid [5] it was 67.7%.

Turning to `CNC(=O)c1cc(C(=O)N[C@H]2[C@@H]3COC[C@@H]32)cc2c1O[C@H](CF)[C@H]2c1ccccc1` [GSK973], the viability at 10 µM in the test with Colon cancer organoid [1] was found to be 58.5%; in the test with Colon cancer organoid [2], 99.3%; in the test with Colon cancer organoid [3], 46.5%; with Colon cancer organoid [4], 23.6%; with Colon cancer organoid [5], 102%.

`O=C(O)c1ccc(-c2c[nH]c3ncc(-c4ccccc4)cc23)cc1C1CCCC1` [GSK-650394]: the viability at 10 µM in the test on Colon cancer organoid [1] is 93.5%; in the test with Colon cancer organoid [2] it was 104%; in the test with Colon cancer organoid [3], 82.6%; in the test on Colon cancer organoid [4], 65%; in the test with Colon cancer organoid [5], 136%.

Turning to `Cc1c(Oc2ccc(F)cc2)c(OC(C)C)nn1-c1ccc(C2CC2)cn1` [IPP/CNRS-A019], the viability at 10 µM in the test on Colon cancer organoid [1] is 86.4%; with Colon cancer organoid [2], 84.4%; in the test with Colon cancer organoid [3], 75.2%; with Colon cancer organoid [4] it was 50.2%; in the test on Colon cancer organoid [5] it was 147%.

Turning to `COCCc1ccc(-c2c(C)nc3c(N4CCOCC4)ccnn23)cn1` [JNJ-42396302], the viability at 10 µM worked out at 97% in the test on Colon cancer organoid [1]; 122% in the test on Colon cancer organoid [2]; 70.4% in the test on Colon cancer organoid [3]; 65.9% with Colon cancer organoid [4]; 143% with Colon cancer organoid [5].

Turning to `COc1nc2ccc([C@@](O)(c3ccccc3)C3CCN(C(C)=O)CC3)cc2c(Cl)c1Cc1ccc(-n2cccn2)cc1` [JNJ-54119936], the viability at 10 µM in the test with Colon cancer organoid [1] amounted to 64.3%; in the test with Colon cancer organoid [2], 146%; in the test with Colon cancer organoid [3] it was 62.6%; with Colon cancer organoid [4], 45.8%; with Colon cancer organoid [5], 106%.

For `CC(=O)Nc1ncc(CN2CCC[C@H](Cc3cc(C)nc(C)c3)C2)s1` [JNJ-65355394], the viability at 10 µM worked out at 88.8% in the test on Colon cancer organoid [1]; 106% in the test on Colon cancer organoid [2]; 44.3% in the test with Colon cancer organoid [3]; 47.9% in the test on Colon cancer organoid [4]; 103% in the test on Colon cancer organoid [5].

For the compound `CC(=O)Nc1nc(CN2CCC[C@H](Cc3cc(C)nc(C)c3)C2)cs1` [JNJ-73924149], the viability at 10 µM came to 79.3% in the test with Colon cancer organoid [1]; 109% in the test on Colon cancer organoid [2]; 79.9% in the test on Colon cancer organoid [3]; 46.2% in the test on Colon cancer organoid [4]; 125% in the test on Colon cancer organoid [5].

With `N#CN1CC[C@@H](C(=O)Nc2nc3c(s2)CN(C(=O)CN=[N+]=[N-])CC3)C1` [JYQ88], the viability at 10 µM with Colon cancer organoid [1] came out at 45.5%; with Colon cancer organoid [2], 137%; in the test with Colon cancer organoid [3], 78.4%; in the test with Colon cancer organoid [4], 34.4%; with Colon cancer organoid [5], 76.5%.

On to `CNC(=N)NCCC[C@H](NC(=O)[C@H](CC(C)C)NC(=O)NNC(=O)[C@H](Cc1ccccc1)NC(=O)[C@H](CO)NC(=O)[C@H](CC(N)=O)NC(=O)[C@@H](Cc1ccncc1)NC(=O)[C@H](N)Cc1ccc(O)cc1)C(=O)N[C@@H](Cc1ccccc1)C(N)=O` [KISS1-305] (H-[dY][d4Pal]NSF[azaGly]L[Arg(Me)]F-NH2), for which the viability at 10 µM with Colon cancer organoid [1] was 66.9%; in the test with Colon cancer organoid [2] it was 119%; in the test with Colon cancer organoid [3] it was 61.3%; with Colon cancer organoid [4] it was 52.8%; with Colon cancer organoid [5] it was 97.6%.

As to `CNC(=N)NCCC[C@H](NC(=O)[C@H](CC(C)C)NC(=O)NNC(=O)[C@H](Cc1ccccc1)NC(=O)[C@H](CO)NC(=O)[C@H](CC(N)=O)NC(=O)[C@@H](Cc1cccnc1)NC(=O)[C@H](N)Cc1ccc(O)cc1)C(=O)NCC(N)=O` [KISS1-543] (H-[dY][d3Pal]NSF[azaGly]L[Arg(Me)]G-NH2), the viability at 10 µM in the test on Colon cancer organoid [1] stood at 49.7%; with Colon cancer organoid [2], 103%; with Colon cancer organoid [3], 71.6%; in the test on Colon cancer organoid [4], 62.9%; in the test on Colon cancer organoid [5] it was 93.8%.

As to `CCS(=O)(=O)Nc1ccc(Oc2ccc(F)cc2F)c(-c2cn(C)c(=O)c3[nH]ccc23)c1` [MIVEBRESIB], the viability at 10 µM in the test on Colon cancer organoid [1] was determined as 29.2%; with Colon cancer organoid [2] it was 5.68%; with Colon cancer organoid [3] it was 25.4%; with Colon cancer organoid [4], 1.95%; in the test with Colon cancer organoid [5], 37.5%.

Turning to `CN([C@@H]1CCc2c(CC(=O)O)c3ccccc3n2C1)S(=O)(=O)c1ccc(F)cc1` [MK-7246], the viability at 10 µM turned out to be 46.3% with Colon cancer organoid [1]; 88.6% in the test on Colon cancer organoid [2]; 76.2% in the test with Colon cancer organoid [3]; 43.4% with Colon cancer organoid [4]; 79.7% in the test with Colon cancer organoid [5].

As for `C[C@@H]1CN(c2cc(-c3nn(C)c4ccc(OC5(C)CC5)cc34)ncn2)C[C@H](C)O1` [MLi-2-NC], the viability at 10 µM is 40.9% in the test on Colon cancer organoid [1]; 77.2% with Colon cancer organoid [2]; 62.4% in the test on Colon cancer organoid [3]; 28.6% in the test on Colon cancer organoid [4]; 107% with Colon cancer organoid [5].
